Columns and labels:
[1] = test system: Hamster Tracheal Organ Culture (keratinization); assay: Reversal of keratinization in hamster tracheal organ culture; type: cell-based
Protocol: (§1) The ODC assay measures a compound's effect on the prevention of the induction of ODC. The tracheal organ culture assay measures a compound's ability to reverse keratinization.
The tracheal organ culture assay is carried out as follows. Tracheas are taken from hamsters that are in very early stages of vitamin A deficiency and placed in organ culture. At the time of culture, the animals are still gaining weight; the tracheal epithelium is generally low columnar or cuboidal, with only occasional patches of squamous metaplasia. Each trachea is opened from the larynx to the carina along the membranous dorsal wall and cultured in a serum-free medium (CMRL-1066; with crystalline bovine insulin, 0.1 μg/ml; hydrocortisone hemisuccinate, 0.1 μg/ml; glutamine, 2 mM; penicillin, 100 units/ml; and streptomycin,100 μg/ml, added). Cultures are gassed with 50% oxygen, 45% nitrogen, and 5% CO2. The culture dishes are rocked at 35.5-36.0 degrees to allow the tracheas contact with both gas and medium. All tracheas are grown in medium containing no retinoid for the first 3 days. At the end of 3 days, some tracheas are harvested; almost all of these tracheas have significant squamous metaplasia, and approximately 60% have keratinized lesions. The remaining tracheas are then divided into different groups which are treated with either: (1) retinoid dissolved in dimethylsulfoxide (final concentration of DMSO in culture medium is never greater than 0.1%) or (2) an equivalent amount of DMSO alone. Culture medium is changed three times a week, and all of the remaining tracheas are harvested at the end of 10 days in culture. Tracheas are fixed in 10% buffered formalin and embedded in paraffin. Cross sections of five micrometers are made through the mid-portion, stained with hematoxylin and eosin, and then scored with a microscope for the presence of keratin and keratohyaline granules, both of which are found in approximately 90% of control cultures that receive no retinoid for the entire 10 day culture period.

Ornithine Decarboxylase = assay: Inhibition of induction of ornithine decarboxylase (ODC) by 12-O-tetradecanoylphorbol-13-acetate in mouse skin; type: in vivo; conditions: topical, 1 hour before TPA (17 nmol)
Protocol: as §1
The ODC assay is carried out as follows. Female Charles River CD-1 mice from Charles River Breeding Laboratories, Wilmington, Mass., are used (age 7 to 9 weeks). The dorsal hair of the mice is shaved 1 to 2 days before testing, and only mice showing no hair regrowth are used. A single dose of 12-O-tetradecanoylphorbol-13-acetate (TPA) (10.5 μg, 17 nmol) in 0.2 mL of acetone is applied topically to the back of each mouse. The test compound, at one of three dose levels (1.7, 17, and 170 nmol), dissolved in 0.2 mL of acetone is applied 1 hour before the TPA treatment to the test groups; the control group is treated with acetone alone. The mice are killed by cervical dislocation five hours after TPA treatment. Determinations are done in triplicate.
The epidermis is obtained from the sacrificed animals. To obtain sufficient material, the dorsal skins from 2 to 3 mice in each treatment group are pooled. The depilatory agent Nudit® (Helena Rubinstein, New York) is applied to the shaved area of the skin; after 5 minutes, it is washed off thoroughly with cold tap water. Then the skin is excised and plunged immediately into ice-cold water; it is then placed in a 55° C. water bath for 30 seconds and reimmersed in ice-cold water for at least another 30 seconds. The skin is placed epidermis side up on a cold plate, and the epidermis is scraped off with a razor blade. The pooled epidermal sheets are homogenized (Polytron PT-10 homogenizer) at 0° to 4° C. for 15-20 seconds in 50 mM sodium phosphate buffer (pH 7.2) containing 0.1 mM pyridoxal phosphate and 0.1 mM ethylenediaminetetraacetic acid (EDTA), at a volume of 1 mL/skin.
The supernatant fraction remaining after centrifugation of the homogenate at 10,000×g for 30 seconds at 0° C. is used for the enzyme assay. Enzyme activity is determined using the microassay for ODC as described by Verma and Boutwell to measure the release of ^14 CO2 from DL-[1-^14 C]-ornithine (58 mCi/mmol) after incubation with the 10,000×g supernatant. The incubations are carried out by decanting, with a Pasteur pipette, 100 μL of the supernatant containing 100 to 120 μg of protein into two or three 15-mL Corex tubes in a shaking water bath at 37° C. The assay mixture in the tubes consists of 50 μL of 100 mM sodium phosphate buffer (pH 7.2), 10 μL of 4 mM pyridoxal phosphate, 40 μL of 25 mM dithiothreitol, and 1 μL of 0.1M EDTA. The center wells in the tubes are filled with 200 μL of a 2:1 solution (v/v) of ethanolamine:2-methoxyethanol. The reaction is started by adding 50 μL of substrate (0.5 μCi of DL-[1-^14 C]-ornithine in 2 mM cold ornithine) at 1-minute intervals by injection to each of the stoppered tubes. Incubations are routinely carried out at 37° C. for 30 to 60 minutes. The reaction is stopped by addition of 0.5 ml of 2M citric acid, and incubation is continued for an additional hour without heating to ensure complete absorption of ^14 CO2.
Radioactivity is measured using a toluene-based scintillant (4 g of PPO and 50 mg of POPOP/L of toluene) in a Beckman LS-250 liquid scintillation counter. Enzyme activity is determined in triplicate and expressed as nanomoles of CO2 released in 30 minutes per milligram of protein. Enzyme activity is linear for the protein concentration used. The protein concentrations of the epidermal extracts are determined by the Lowry procedure, using bovine serum albumin as the standard.

| SMILES | Reversal of Keratinization, Active/Total Cultures ([1]; Conc 10^-8 M) | Reversal of Keratinization, Active/Total Cultures (%) ([1]; Conc 10^-8 M) | Reversal of Keratinization, Active/Total Cultures ([1]; Conc 10^-9 M) | Reversal of Keratinization, Active/Total Cultures (%) ([1]; Conc 10^-9 M) | Reversal of Keratinization, Active/Total Cultures ([1]; Conc 10^-10 M) | Reversal of Keratinization, Active/Total Cultures (%) ([1]; Conc 10^-10 M) | Reversal of Keratinization, Active/Total Cultures ([1]; Conc 10^-11 M) | Reversal of Keratinization, Active/Total Cultures (%) ([1]; Conc 10^-11 M) | Inhibition of Induction of Ornithine Decarboxylase by TPA, % Inhibition of Control (Ornithine Decarboxylase; Dose 1.7 nmol) | Inhibition of Induction of Ornithine Decarboxylase by TPA, % Inhibition of Control (Ornithine Decarboxylase; Dose 17 nmol) |
| --- | --- | --- | --- | --- | --- | --- | --- | --- | --- | --- |
| CC1=C(/C=C/C(C)=C/C=C/C(C)=C/C(=O)OCC(CO)(CO)CO)C(C)(C)CCC1 [Example 2, Pentaerythritol Monoretinoate] | 13/13 | 100% | 15/15 | 100% | 18/25 | 72% | 5/11 | 45% | 35% | 43% |
| CC1=C(/C=C/C(C)=C/C=C/C(C)=C/C(=O)OC[C@]2(CO)CO[C@H](c3ccccc3)OC2)C(C)(C)CCC1 [Example 1 (Isomer (3)), (E)-2α-Phenyl-5β-hydroxymethyl-5α-retinoyloxymethyl-1,3-dioxane] | 13/13 | 100% | 18/18 | 100% | 7/19 | 37% | 2/6 | 33% | 47% | 57% |
| CC1=C(/C=C/C(C)=C/C=C/C(C)=C/C(=O)OC[C@]2(CO)CO[C@@H](c3ccccc3)OC2)C(C)(C)CCC1 [Example 1 (Isomer (2)), (E)-2α-Phenyl-5α-hydroxymethyl-5β-retinoyloxymethyl-1,3-dioxane] | 13/13 | 100% | 17/18 | 94% | 9/18 | 50% | 2/6 | 33% | 40% | 49% |
